The values that follow come from ChEMBL document CHEMBL1201862, “PubChem BioAssay data set” (2004).

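Following 48 hours of exposure in 96-well plates, responses at five concentrations were used to interpolate endpoints linearly. GI50: concentration for 50% inhibition of growth.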 Calls of active or inactive are those of the source. Rule as the data show it: active = GI50 up to about 1.1 µM and inactive = higher.

Test systems include SF-539; HCT-116; MOLT-4; NCI-H460; CCRF-CEM; U-251; SK-MEL-28; K562; SNB-75; SK-OV-3; HCT-15; Malme-3M; M14; A549; SF-295; COLO 205; NCI-H226; UACC-257; A498; LOX IMVI.
Experiment in all cases: inhibition of tumour cell growth, NCI panel, 48 h

On to `C=CCSc1nnc2cc(CN3CCCC3)c(-c3ccc(Cl)cc3)nn12`, for which the GI50 in the assay on SF-539 is 18.6 µM (inactive); in the assay with HCT-116 it was 14.5 µM (inactive); with MOLT-4 it was 26 µM (inactive); in the assay on NCI-H460, 17.9 µM (inactive); with CCRF-CEM, 45.1 µM (inactive); in the assay on U-251, 17.5 µM (inactive). Also, the GI50 is 20 µM (inactive) in the assay on SK-MEL-28; 34.7 µM (inactive) in the assay on K562; 19.9 µM (inactive) with SNB-75; 20.2 µM (inactive) with SK-OV-3; 21.3 µM in the assay on HCT-15; 22.6 µM (inactive) with Malme-3M. The GI50 in the assay with M14 was 18.1 µM (inactive); in the assay on A549 it was 28.1 µM (inactive); in the assay on SF-295 it was 22.2 µM (inactive); with COLO 205 it was 17.6 µM (inactive); in the assay on NCI-H226, 11.2 µM (inactive); in the assay with UACC-257 it was 17.5 µM (inactive). The GI50 in the assay with A498 is 15.9 µM (inactive); in the assay on LOX IMVI, 20.4 µM (inactive).
Consider `COc1ccc(/C=C2/SC(c3c(O)ccc4ccccc34)N(NC(=O)CCCCCCCCC(=O)NN3C(=O)/C(=C\c4ccc(OC)c(OC)c4)SC3c3c(O)ccc4ccccc34)C2=O)cc1OC` (stereo not given), for which the GI50 is 1.01 µM (active) in the assay with SF-539; 0.345 µM (active) with HCT-116; 0.176 µM (active) in the assay with MOLT-4; 0.649 µM (active) in the assay on NCI-H460; 0.222 µM (active) in the assay with CCRF-CEM; 1.26 µM (inactive) in the assay on U-251. For the same molecule, the GI50 in the assay with SK-MEL-28 is 2.98 µM (inactive); with K562, 1.2 µM (inactive); with SNB-75 it was 8.53 µM (inactive); in the assay with SK-OV-3, 2.24 µM (inactive); with HCT-15, 0.871 µM; with Malme-3M, 2 µM (inactive). Further, the GI50 is 0.897 µM (active) in the assay with M14; 1.44 µM (inactive) with A549; 1.39 µM (inactive) in the assay on SF-295; 3.15 µM (inactive) in the assay on COLO 205; 0.855 µM (active) in the assay on NCI-H226; 2.37 µM (inactive) with UACC-257. The GI50 is 7.6 µM (inactive) in the assay with A498 and 0.394 µM (active) in the assay on LOX IMVI.
Consider `O=S(=O)(Nc1ccccc1)c1ccc(-c2c3nc(c(-c4ccc(S(=O)(=O)Nc5ccccc5)cc4)c4ccc([nH]4)c(-c4ccc(S(=O)(=O)Nc5ccccc5)cc4)c4nc(c(-c5ccc(S(=O)(=O)Nc6ccccc6)cc5)c5ccc2[nH]5)C=C4)C=C3)cc1`, for which the GI50 in the assay on SF-539 was > 31.6 µM (inactive); in the assay with HCT-116, > 31.6 µM (inactive); in the assay on MOLT-4, > 31.6 µM (inactive); in the assay on NCI-H460, 11.6 µM (inactive); in the assay with CCRF-CEM it was > 31.6 µM (inactive); in the assay with U-251 it was > 31.6 µM (inactive). For the same molecule, the GI50 in the assay with SK-MEL-28 is > 10 µM (inactive); with K562, > 31.6 µM (inactive); in the assay with SNB-75 it was 11.5 µM (inactive); in the assay with SK-OV-3, > 31.6 µM (inactive); in the assay with HCT-15 it was over 31.6 µM; in the assay with Malme-3M, > 31.6 µM (inactive). Also, the GI50 is 12.6 µM (inactive) in the assay on M14; > 31.6 µM (inactive) in the assay on A549; 22.9 µM (inactive) with SF-295; > 31.6 µM (inactive) in the assay with COLO 205; > 100 µM (inactive) with NCI-H226; 26.4 µM (inactive) with UACC-257. The GI50 is > 31.6 µM (inactive) in the assay on A498 and > 10 µM (inactive) with LOX IMVI.
Turning to `Cc1nc2ccc(S(=O)(=O)NS(=O)(=O)c3ccc(-c4ccccc4)cc3)cc2c(=O)n1NS(=O)(=O)c1ccc(-c2ccccc2)cc1`, the GI50 in the assay on SF-539, in the assay on HCT-116, in the assay on MOLT-4, in the assay on NCI-H460, with CCRF-CEM and in the assay on U-251 was > 100 µM (inactive) throughout. Further, the GI50 is > 100 µM (inactive) in the assay with SK-MEL-28; > 100 µM (inactive) in the assay with K562; > 100 µM (inactive) in the assay with SNB-75; > 100 µM (inactive) in the assay on SK-OV-3; over 100 µM with HCT-15; > 100 µM (inactive) in the assay on Malme-3M. Moreover, the GI50 with M14, with A549, with SF-295, in the assay with COLO 205, in the assay with NCI-H226 and in the assay with UACC-257 was > 100 µM (inactive) in each case. Also, the GI50 was 0.753 µM (active) in the assay with A498 and > 100 µM (inactive) in the assay on LOX IMVI.
As to `Cc1cc2c(cc1C(=O)CCC(=O)O)CC1(C2)Cc2cc(C)c(C(=O)CCC(=O)O)cc2C1`, the GI50 in the assay on SF-539, with HCT-116, in the assay on MOLT-4, in the assay with NCI-H460, in the assay on CCRF-CEM and in the assay with U-251 was > 100 µM (inactive) throughout. The GI50 is > 100 µM (inactive) in the assay with SK-MEL-28; > 100 µM (inactive) in the assay on K562; 90.6 µM (inactive) in the assay on SNB-75; > 100 µM (inactive) with SK-OV-3; over 100 µM with HCT-15; > 100 µM (inactive) in the assay on Malme-3M. Also, the GI50 in the assay with M14, in the assay with A549, in the assay on SF-295, in the assay with COLO 205, with NCI-H226 and in the assay on UACC-257 was > 100 µM (inactive) in each case. The GI50 in the assay with A498 and in the assay with LOX IMVI was > 100 µM (inactive) in each case.
Turning to `O=C1/C(=c2\c3ccccc3n3c(=O)c4ccccc4nc23)Nc2ccccc21` [CANDIDINE], the GI50 in the assay with SF-539 was > 63 µM (inactive); in the assay with HCT-116 it was > 100 µM (inactive); with MOLT-4, > 31.6 µM (inactive); in the assay on NCI-H460 it was 43.5 µM (inactive); in the assay with CCRF-CEM it was > 100 µM (inactive); in the assay with U-251, > 93.8 µM (inactive). In addition, the GI50 with SK-MEL-28 was > 100 µM (inactive); in the assay with K562, > 84.5 µM (inactive); in the assay with SNB-75, 25.6 µM (inactive); in the assay on SK-OV-3, > 100 µM (inactive); with HCT-15, over 100 µM; with Malme-3M, 33 µM (inactive). For the same molecule, the GI50 was > 38.7 µM (inactive) in the assay on M14; > 84.5 µM (inactive) with A549; > 78.3 µM (inactive) with SF-295; 58.5 µM (inactive) with COLO 205; > 100 µM (inactive) in the assay with NCI-H226; > 86.7 µM (inactive) in the assay on UACC-257. The values for the GI50 with A498 and in the assay on LOX IMVI were > 100 µM (inactive) and > 72.8 µM (inactive), respectively.
As to `Cc1c(N(C)C)ccc2c(=O)c3cccc(CC(=O)O)c3oc12`, the GI50 in the assay on SF-539, with HCT-116, in the assay with MOLT-4, in the assay with NCI-H460, with CCRF-CEM and in the assay on U-251 was > 100 µM (inactive) throughout. Moreover, the GI50 with SK-MEL-28 is > 100 µM (inactive); with K562, > 100 µM (inactive); with SNB-75, > 100 µM (inactive); with SK-OV-3, > 100 µM (inactive); in the assay with HCT-15 it was over 100 µM; in the assay with Malme-3M it was > 100 µM (inactive). Besides, the GI50 with M14, in the assay on A549, in the assay on SF-295, in the assay with COLO 205, with NCI-H226 and with UACC-257 was > 100 µM (inactive) in each case. For the same molecule, the GI50 is > 81.8 µM (inactive) in the assay on A498 and > 100 µM (inactive) in the assay on LOX IMVI.
